We go through six compounds from ChEMBL document CHEMBL5360608 (ACS Med Chem Lett, 2023).

The structures appear in SMILES notation. Calls of active or inactive are those of the source. The calls are words filed in the database; no cut-off is given here.

Assay [1] deals with T1, Sodium channel protein type 4 subunit alpha (Homo sapiens, UniProt P35499). As to the kind of experiment: Inhibition of human Nav 1.4 expressed in HEK293T cells assessed as tonic block at 0.1 Hz by whole cell patch clamp assay. It counts as cell-based.
Assay [2] addresses T1, Sodium channel protein type 4 subunit alpha. In words: Inhibition of human Nav 1.4 expressed in HEK293T cells assessed as phasic block at 10 Hz by whole cell patch clamp assay. It is filed as cell-based.
The species named for assay [3] is Homo sapiens. In words: Selectivity ratio of IC50 for human Nav 1.4 expressed in HEK293T cells assessed as tonic block at 0.1 Hz to IC50 for human Nav 1.4 expressed in HEK293T cells assessed as phasic block at 10 Hz. It counts as cell-based.
Assay [4] deals with Mus musculus. In words: Analgesic activity in po dosed mouse assessed as licking latency at 77 uM measured after 15 mins by hot plate test (reference value: 14.5 to 15.7 sec). It counts as functional. The following applies: 0.25 h.
For assay [5], the system named is Mus musculus. As to the kind of experiment: Analgesic activity in po dosed mouse assessed as licking latency at 77 uM measured after 30 mins by hot plate test (reference value: 14.5 to 15.7 sec). The settings on record: 0.5 h. It is filed as functional.
The subject of assay [6] is Mus musculus. In words: Analgesic activity in po dosed mouse assessed as licking latency at 77 uM measured after 45 mins by hot plate test (reference value: 14.5 to 15.7 sec). The settings on record: 0.75 h. It is filed as functional.
The subject of assay [7] is Mus musculus. As to the kind of experiment: Analgesic activity in po dosed mouse assessed as licking latency at 77 uM measured after 60 mins by hot plate test (reference value: 14.5 to 15.7 sec). It is filed as functional. The following applies: 1 h.
Assay [8] has as its target T2, Sodium channel protein type 9 subunit alpha (Homo sapiens, UniProt Q15858). As to the kind of experiment: Inhibition of human Nav 1.7 expressed in HEK293T cells assessed as tonic block at 0.1 Hz by whole cell patch clamp assay. It is filed as cell-based.
Assay [9] addresses T2, Sodium channel protein type 9 subunit alpha. In words: Inhibition of human Nav 1.7 expressed in HEK293T cells assessed as phasic block at 10 Hz by whole cell patch clamp assay. It counts as cell-based.
The species named for assay [10] is Homo sapiens. In words: Selectivity ratio of IC50 for human Nav 1.7 expressed in HEK293T cells assessed as tonic block at 0.1 Hz to IC50 for human Nav 1.7 expressed in HEK293T cells assessed as phasic block at 10 Hz. It is filed as cell-based.
Assay [11] relates to Mus musculus. As to the kind of experiment: Analgesic activity in po dosed mouse assessed as alterations in motor coordination at high dose by hot plate test. It counts as functional, organism-based.
For assay [12], the system named is Mus musculus. In words: Analgesic activity in po dosed mouse assessed as alteration in spontaneous motility at high dose by hot plate test. It is filed as functional, organism-based.
Assay [13] is filed under the species Rattus norvegicus. As to the kind of experiment: Reduction in 9-anthracene carboxylic acid induced myotonic-like condition in Wistar rat skeletal muscle fiber by measuring electable action potential at upto 10 uM by two intracellular microelectrode current-clamp method. The following applies: Skeletal muscle tissue. It is filed as functional, tissue-based.
For assay [14], the species on record is Rattus norvegicus. As to the kind of experiment: Reduction in 9-anthracene carboxylic acid induced myotonic-like condition in Wistar rat skeletal muscle fiber by measuring electable action potential at 0.3 to 10 uM by two intracellular microelectrode current-clamp method. It counts as functional, tissue-based. The following applies: Skeletal muscle tissue, dose 0.3-10 µM.

T1 sequence (P35499 whole entry): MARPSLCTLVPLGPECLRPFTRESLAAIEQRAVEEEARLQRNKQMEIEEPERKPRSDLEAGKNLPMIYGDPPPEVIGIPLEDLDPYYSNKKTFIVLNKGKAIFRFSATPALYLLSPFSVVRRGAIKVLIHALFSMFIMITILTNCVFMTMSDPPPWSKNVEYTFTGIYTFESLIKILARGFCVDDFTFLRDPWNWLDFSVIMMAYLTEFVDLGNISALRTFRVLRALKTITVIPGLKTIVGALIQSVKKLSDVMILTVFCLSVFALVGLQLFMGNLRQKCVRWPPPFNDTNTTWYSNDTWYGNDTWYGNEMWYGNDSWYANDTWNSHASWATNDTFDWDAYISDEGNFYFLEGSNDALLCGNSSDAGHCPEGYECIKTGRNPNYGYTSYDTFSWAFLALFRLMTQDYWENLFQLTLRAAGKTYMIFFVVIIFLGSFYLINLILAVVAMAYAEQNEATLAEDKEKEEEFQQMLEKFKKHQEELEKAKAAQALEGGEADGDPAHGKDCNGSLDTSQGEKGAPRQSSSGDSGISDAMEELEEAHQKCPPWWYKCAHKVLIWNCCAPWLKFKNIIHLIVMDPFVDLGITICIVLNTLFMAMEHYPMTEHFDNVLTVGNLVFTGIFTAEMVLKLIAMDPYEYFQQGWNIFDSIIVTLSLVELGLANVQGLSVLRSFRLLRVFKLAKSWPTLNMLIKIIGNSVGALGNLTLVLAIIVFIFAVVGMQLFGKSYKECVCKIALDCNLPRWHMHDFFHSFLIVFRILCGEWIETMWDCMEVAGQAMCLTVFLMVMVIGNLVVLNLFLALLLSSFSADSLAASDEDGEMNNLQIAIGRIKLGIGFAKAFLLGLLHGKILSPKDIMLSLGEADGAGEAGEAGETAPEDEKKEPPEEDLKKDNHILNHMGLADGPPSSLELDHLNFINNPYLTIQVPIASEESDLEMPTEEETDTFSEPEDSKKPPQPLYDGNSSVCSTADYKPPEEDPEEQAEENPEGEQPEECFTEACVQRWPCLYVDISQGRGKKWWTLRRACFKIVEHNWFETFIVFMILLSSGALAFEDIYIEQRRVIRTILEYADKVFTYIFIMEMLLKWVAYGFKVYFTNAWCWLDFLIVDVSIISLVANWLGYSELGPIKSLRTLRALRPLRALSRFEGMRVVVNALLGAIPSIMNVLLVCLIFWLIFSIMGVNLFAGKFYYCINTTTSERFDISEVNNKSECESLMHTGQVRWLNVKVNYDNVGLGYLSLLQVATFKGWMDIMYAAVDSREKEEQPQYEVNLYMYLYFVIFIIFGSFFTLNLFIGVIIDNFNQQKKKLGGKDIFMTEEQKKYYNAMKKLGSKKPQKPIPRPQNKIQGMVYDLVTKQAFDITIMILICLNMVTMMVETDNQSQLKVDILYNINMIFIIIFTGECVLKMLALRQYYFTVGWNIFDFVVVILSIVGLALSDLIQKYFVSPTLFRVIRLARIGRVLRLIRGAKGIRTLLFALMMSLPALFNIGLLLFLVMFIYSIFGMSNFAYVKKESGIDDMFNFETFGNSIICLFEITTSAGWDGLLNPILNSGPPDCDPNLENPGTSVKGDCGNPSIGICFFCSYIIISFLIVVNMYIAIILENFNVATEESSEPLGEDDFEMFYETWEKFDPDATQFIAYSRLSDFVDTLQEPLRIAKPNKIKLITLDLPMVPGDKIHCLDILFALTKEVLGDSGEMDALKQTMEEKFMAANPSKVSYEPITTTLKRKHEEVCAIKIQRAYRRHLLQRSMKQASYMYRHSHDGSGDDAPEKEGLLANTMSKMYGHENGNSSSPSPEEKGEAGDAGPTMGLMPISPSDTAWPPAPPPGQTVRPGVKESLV
T2 sequence (Q15858 whole entry): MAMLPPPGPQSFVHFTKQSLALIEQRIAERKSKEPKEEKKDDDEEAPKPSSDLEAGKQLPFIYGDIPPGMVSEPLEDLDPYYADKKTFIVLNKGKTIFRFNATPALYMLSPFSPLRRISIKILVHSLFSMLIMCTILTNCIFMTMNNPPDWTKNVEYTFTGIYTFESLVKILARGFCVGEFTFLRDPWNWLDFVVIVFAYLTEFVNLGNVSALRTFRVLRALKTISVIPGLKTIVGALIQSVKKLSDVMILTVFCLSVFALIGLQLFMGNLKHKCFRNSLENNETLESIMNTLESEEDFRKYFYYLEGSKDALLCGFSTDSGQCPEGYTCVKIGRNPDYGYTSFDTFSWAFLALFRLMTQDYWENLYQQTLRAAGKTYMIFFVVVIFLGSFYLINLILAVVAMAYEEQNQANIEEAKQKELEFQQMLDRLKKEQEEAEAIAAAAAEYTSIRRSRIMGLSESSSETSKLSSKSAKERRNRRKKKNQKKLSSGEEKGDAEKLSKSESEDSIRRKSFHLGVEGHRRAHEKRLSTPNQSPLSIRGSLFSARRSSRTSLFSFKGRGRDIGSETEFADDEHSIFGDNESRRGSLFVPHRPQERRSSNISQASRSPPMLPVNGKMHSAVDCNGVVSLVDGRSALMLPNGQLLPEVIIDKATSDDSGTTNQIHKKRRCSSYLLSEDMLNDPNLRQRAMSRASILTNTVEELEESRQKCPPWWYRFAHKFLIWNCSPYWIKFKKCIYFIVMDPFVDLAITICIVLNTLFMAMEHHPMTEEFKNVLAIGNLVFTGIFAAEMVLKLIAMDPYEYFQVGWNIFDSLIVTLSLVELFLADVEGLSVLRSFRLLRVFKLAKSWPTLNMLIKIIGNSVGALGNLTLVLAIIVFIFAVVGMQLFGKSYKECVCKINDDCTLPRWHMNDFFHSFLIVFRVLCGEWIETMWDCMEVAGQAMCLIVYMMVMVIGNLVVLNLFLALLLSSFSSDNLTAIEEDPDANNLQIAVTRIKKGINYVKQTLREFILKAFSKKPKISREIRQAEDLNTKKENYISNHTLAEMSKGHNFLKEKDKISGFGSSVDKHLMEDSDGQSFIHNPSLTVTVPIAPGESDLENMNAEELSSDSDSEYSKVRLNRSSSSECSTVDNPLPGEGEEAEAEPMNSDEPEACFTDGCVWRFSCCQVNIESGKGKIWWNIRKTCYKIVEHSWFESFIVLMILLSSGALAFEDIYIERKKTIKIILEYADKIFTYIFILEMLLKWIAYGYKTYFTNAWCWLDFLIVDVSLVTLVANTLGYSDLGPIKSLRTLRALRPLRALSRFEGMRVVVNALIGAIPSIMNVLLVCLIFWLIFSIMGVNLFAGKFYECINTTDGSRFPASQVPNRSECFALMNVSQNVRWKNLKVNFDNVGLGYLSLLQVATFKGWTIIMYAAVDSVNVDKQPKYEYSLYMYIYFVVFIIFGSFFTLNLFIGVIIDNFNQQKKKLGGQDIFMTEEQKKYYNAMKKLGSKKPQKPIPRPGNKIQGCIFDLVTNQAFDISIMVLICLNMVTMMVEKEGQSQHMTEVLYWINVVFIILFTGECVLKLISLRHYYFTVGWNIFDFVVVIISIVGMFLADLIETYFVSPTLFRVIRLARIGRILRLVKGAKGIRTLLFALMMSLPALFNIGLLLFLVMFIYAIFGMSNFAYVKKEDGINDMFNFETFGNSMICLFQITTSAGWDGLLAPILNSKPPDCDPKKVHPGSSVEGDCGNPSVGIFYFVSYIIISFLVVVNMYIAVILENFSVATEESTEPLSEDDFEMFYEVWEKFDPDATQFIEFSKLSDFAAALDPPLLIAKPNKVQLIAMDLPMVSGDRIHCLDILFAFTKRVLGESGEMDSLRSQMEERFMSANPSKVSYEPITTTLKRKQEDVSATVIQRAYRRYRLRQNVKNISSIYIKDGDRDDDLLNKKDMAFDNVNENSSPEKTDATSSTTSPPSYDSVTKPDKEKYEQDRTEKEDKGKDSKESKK

Consider `Nc1nc2ccc(C(F)(F)F)cc2s1`, for which the values for the concentration for half-maximal inhibition (IC50) in [1] and in assay [2] were 58 µM and 53 µM, respectively. In addition, the Ratio IC50 in the assay filed under Homo sapiens [3] was 1.1.

For the compound `CNCCN(C)c1nc2ccc(OC(F)(F)F)cc2s1`, the Activity turned out to be 17.8 s with Mus musculus [4], 18 s in the assay on Mus musculus [5], 16.6 s in the assay with Mus musculus [6] and 16 s in the assay with Mus musculus [7].

For the compound `c1ccc(Oc2ccc3nc(N4CCNCC4)sc3c2)cc1`, the IC50 in [1] turned out to be 250 µM; in assay [8], 106 µM; in [2], 63 µM; in assay [9], 48 µM. Moreover, the Ratio IC50 turned out to be 4 in the assay filed under Homo sapiens [3] and 2.2 in the assay listed under Homo sapiens [10]. The Activity with Mus musculus [4] is 21.6 s; in the assay with Mus musculus [5] it was 26.2 s; in the assay with Mus musculus [6], 23.1 s; in the assay with Mus musculus [7], 19.9 s. Moreover, the result in the assay on Mus musculus [11], with Mus musculus [12] and in the assay listed under Rattus norvegicus [13] was inactive.

`CC(C)c1ccc2nc(N)sc2c1`: the half-maximal inhibitory concentration (IC50) was 118 µM in [1] and 89 µM in [2]. Also, in the assay listed under Homo sapiens [3], the Ratio IC50 is 1.3.

Consider `FC(F)(F)Oc1ccc2nc(N3CCNCC3)sc2c1`, for which the IC50 in assay [1] turned out to be 95 µM; in assay [8], 52 µM; in assay [2] it was 38 µM; in [9] it was 24 µM. Moreover, the Ratio IC50 in the assay filed under Homo sapiens [3] is 2.5; in the assay filed under Homo sapiens [10], 2.2. For the same compound, the Activity with Mus musculus [4] is 16.8 s; in the assay on Mus musculus [5], 18.8 s; in the assay on Mus musculus [6], 17.3 s; in the assay with Mus musculus [7] it was 15.5 s.

Turning to `Nc1nc2ccc(OC(F)(F)F)cc2s1` [RILUZOLE], the results for the IC50 in assay [1] and in [2] were 63 µM and 51 µM, respectively. Besides, the Activity in the assay on Mus musculus [4] is listed as 20.5 s; in the assay on Mus musculus [5], 25.6 s; in the assay on Mus musculus [6], 24.3 s; with Mus musculus [7], 18.3 s. The result with Mus musculus [11] and in the assay on Mus musculus [12] was inactive. Besides, the result in the assay filed under Rattus norvegicus [14] was Active.
